Assay results published in ChEMBL document CHEMBL1201862, “PubChem BioAssay data set” (2004).
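Five concentrations, 48 hours, 96-well plates. GI50 = concentration required for 50% inhibition of growth.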 Active and inactive are the calls of the source. Rule as the data show it: active = GI50 up to about 1.1 µM and inactive = higher.

Experiments:
Assay in all cases: NCI-60 cell line screen, 48 h
[1] = tested on: SF-268
[2] = tested on: SK-MEL-5
[3] = tested on: T47D
[4] = tested on: UO-31
[5] = tested on: SK-MEL-2
[6] = tested on: TK-10
[7] = tested on: ACHN
[8] = tested on: HT-29
[9] = tested on: OVCAR-3
[10] = tested on: CCRF-CEM
[11] = tested on: RPMI-8226
[12] = tested on: MDA-MB-435
[13] = tested on: NCI-H226
[14] = tested on: NCI-H460
[15] = tested on: SW-620
[16] = tested on: K562
[17] = tested on: KM12
[18] = tested on: SN12C
[19] = tested on: SK-OV-3
[20] = tested on: COLO 205
[21] = tested on: SR
[22] = tested on: EKVX
[23] = tested on: MDA-N
[24] = tested on: HCT-15
[25] = tested on: Hs-578T
[26] = tested on: SF-295
[27] = tested on: A549
[28] = tested on: HOP-62
[29] = tested on: NCI-H23
[30] = tested on: SF-539
[31] = tested on: NCI/ADR-RES
[32] = tested on: MCF7
[33] = tested on: DU-145
[34] = tested on: UACC-257
[35] = tested on: U-251
[36] = tested on: UACC-62
[37] = tested on: IGROV-1
[38] = tested on: OVCAR-8
[39] = tested on: Malme-3M
[40] = tested on: RXF 393
[41] = tested on: HCT-116
[42] = tested on: PC-3
[43] = tested on: LOX IMVI
[44] = tested on: SNB-19
[45] = tested on: SNB-75
[46] = tested on: SK-MEL-28
[47] = tested on: MDA-MB-231
[48] = tested on: M14
[49] = tested on: HOP-92
[50] = tested on: HCC 2998
[51] = tested on: NCI-H522
[52] = tested on: MOLT-4
[53] = tested on: OVCAR-4
[54] = tested on: 786-0
[55] = tested on: OVCAR-5
[56] = tested on: CAKI-1
[57] = tested on: A498
[58] = tested on: HL-60

C=CC1(c2ccc(-c3ccccc3)cc2)OCCO1
GI50 [1]: > 100 µM (inactive)
GI50 [2]: 35 µM (inactive)
GI50 [3]: 51.2 µM (inactive)
GI50 [4]: > 100 µM (inactive)
GI50 [5]: 16.6 µM (inactive)
GI50 [6]: 89.1 µM (inactive)
GI50 [7]: > 100 µM (inactive)
GI50 [8]: 28.2 µM (inactive)
GI50 [9]: 83.4 µM (inactive)
GI50 [10]: 11.9 µM (inactive)
GI50 [11]: > 100 µM (inactive)
GI50 [12]: 61.2 µM (inactive)
GI50 [13]: 22.9 µM (inactive)
GI50 [14]: > 100 µM (inactive)
GI50 [15]: 31.2 µM (inactive)
GI50 [16]: 22.9 µM (inactive)
GI50 [17]: 41.2 µM (inactive)
GI50 [18]: 76.2 µM (inactive)
GI50 [19]: > 100 µM (inactive)
GI50 [20]: 31.3 µM (inactive)
GI50 [21]: 45.9 µM (inactive)
GI50 [22]: 49.2 µM (inactive)
GI50 [23]: 50.9 µM (inactive)
GI50 [24]: 29.5 µM
GI50 [25]: 23.4 µM (inactive)
GI50 [26]: > 100 µM (inactive)
GI50 [27]: 73.8 µM (inactive)
GI50 [28]: > 100 µM (inactive)
GI50 [29]: 34.7 µM (inactive)
GI50 [30]: > 100 µM (inactive)
GI50 [31]: 65.6 µM (inactive)
GI50 [32]: 54.6 µM (inactive)
GI50 [33]: > 100 µM (inactive)
GI50 [34]: 78.9 µM (inactive)
GI50 [35]: 54.8 µM (inactive)
GI50 [36]: 26.1 µM (inactive)
GI50 [37]: > 100 µM (inactive)
GI50 [38]: > 100 µM (inactive)
GI50 [39]: 42.8 µM (inactive)
GI50 [40]: 39.4 µM (inactive)
GI50 [41]: 47.5 µM (inactive)
GI50 [42]: 35 µM (inactive)
GI50 [43]: 58.9 µM (inactive)
GI50 [44]: 25.8 µM (inactive)
GI50 [45]: 39.1 µM (inactive)
GI50 [46]: > 100 µM (inactive)
GI50 [47]: > 100 µM (inactive)
GI50 [48]: 59.7 µM (inactive)
GI50 [49]: 34.8 µM (inactive)
GI50 [50]: 63.7 µM (inactive)
GI50 [51]: 42 µM (inactive)
GI50 [52]: 40.6 µM (inactive)
GI50 [53]: 79.4 µM (inactive)
GI50 [54]: 46.8 µM (inactive)
GI50 [55]: 64.4 µM (inactive)

C=C(CC(=O)Nc1ccc(C(=O)OC)o1)C(=O)OC
GI50 [1]: 36.6 µM (inactive)
GI50 [2]: 18.5 µM (inactive)
GI50 [3]: 23.2 µM (inactive)
GI50 [4]: 20.6 µM (inactive)
GI50 [56]: 24.5 µM (inactive)
GI50 [5]: 20.7 µM (inactive)
GI50 [6]: 20.8 µM (inactive)
GI50 [7]: 18.7 µM (inactive)
GI50 [8]: 26.5 µM (inactive)
GI50 [10]: > 10 µM (inactive)
GI50 [12]: 17.8 µM (inactive)
GI50 [13]: 26.5 µM (inactive)
GI50 [14]: 29.9 µM (inactive)
GI50 [15]: 22 µM (inactive)
GI50 [17]: 19.9 µM (inactive)
GI50 [18]: 24.9 µM (inactive)
GI50 [19]: 28.7 µM (inactive)
GI50 [20]: 19.6 µM (inactive)
GI50 [22]: 21.8 µM (inactive)
GI50 [23]: > 10 µM (inactive)
GI50 [24]: 24.7 µM
GI50 [25]: 53.1 µM (inactive)
GI50 [26]: 34.5 µM (inactive)
GI50 [27]: 18.2 µM (inactive)
GI50 [28]: 73.3 µM (inactive)
GI50 [29]: 28 µM (inactive)
GI50 [30]: 17.3 µM (inactive)
GI50 [31]: 41.3 µM (inactive)
GI50 [32]: 17.9 µM (inactive)
GI50 [33]: 31.9 µM (inactive)
GI50 [34]: 21.3 µM (inactive)
GI50 [35]: 35 µM (inactive)
GI50 [36]: 25.4 µM (inactive)
GI50 [37]: 23 µM (inactive)
GI50 [38]: 36.9 µM (inactive)
GI50 [39]: 19.7 µM (inactive)
GI50 [40]: 18.5 µM (inactive)
GI50 [41]: 29.4 µM (inactive)
GI50 [42]: 23.6 µM (inactive)
GI50 [43]: 30.8 µM (inactive)
GI50 [44]: 25.3 µM (inactive)
GI50 [45]: 32.4 µM (inactive)
GI50 [46]: 23 µM (inactive)
GI50 [47]: 27.7 µM (inactive)
GI50 [57]: 42.8 µM (inactive)
GI50 [48]: 19.1 µM (inactive)
GI50 [49]: 29.4 µM (inactive)
GI50 [51]: 19.9 µM (inactive)
GI50 [52]: 18.8 µM (inactive)
GI50 [53]: 30.7 µM (inactive)
GI50 [54]: 19.7 µM (inactive)
GI50 [55]: 17.1 µM (inactive)

Cc1cc(C)c(-c2no/c(=N\S(=O)(=O)c3ccc(Cl)cc3)o2)c(C)c1
GI50 [1]: > 100 µM (inactive)
GI50 [2]: 23.1 µM (inactive)
GI50 [3]: 93.3 µM (inactive)
GI50 [4]: > 100 µM (inactive)
GI50 [56]: > 100 µM (inactive)
GI50 [5]: 34 µM (inactive)
GI50 [6]: > 100 µM (inactive)
GI50 [7]: > 100 µM (inactive)
GI50 [8]: > 100 µM (inactive)
GI50 [9]: > 100 µM (inactive)
GI50 [10]: > 100 µM (inactive)
GI50 [11]: 37.2 µM (inactive)
GI50 [12]: > 100 µM (inactive)
GI50 [13]: > 100 µM (inactive)
GI50 [14]: > 100 µM (inactive)
GI50 [15]: > 100 µM (inactive)
GI50 [16]: 49.5 µM (inactive)
GI50 [17]: 57.9 µM (inactive)
GI50 [18]: > 100 µM (inactive)
GI50 [19]: > 100 µM (inactive)
GI50 [20]: 41.4 µM (inactive)
GI50 [21]: 24.7 µM (inactive)
GI50 [22]: > 100 µM (inactive)
GI50 [23]: > 100 µM (inactive)
GI50 [24]: > 100 µM
GI50 [25]: > 100 µM (inactive)
GI50 [26]: > 100 µM (inactive)
GI50 [27]: > 100 µM (inactive)
GI50 [28]: > 100 µM (inactive)
GI50 [29]: > 100 µM (inactive)
GI50 [30]: > 100 µM (inactive)
GI50 [31]: 87.3 µM (inactive)
GI50 [32]: 16.4 µM (inactive)
GI50 [33]: > 100 µM (inactive)
GI50 [34]: 31.1 µM (inactive)
GI50 [35]: > 100 µM (inactive)
GI50 [36]: > 100 µM (inactive)
GI50 [37]: > 100 µM (inactive)
GI50 [38]: > 100 µM (inactive)
GI50 [39]: 75 µM (inactive)
GI50 [40]: > 100 µM (inactive)
GI50 [41]: 51.1 µM (inactive)
GI50 [42]: > 100 µM (inactive)
GI50 [44]: > 100 µM (inactive)
GI50 [45]: > 100 µM (inactive)
GI50 [46]: > 100 µM (inactive)
GI50 [47]: > 100 µM (inactive)
GI50 [57]: > 100 µM (inactive)
GI50 [48]: > 100 µM (inactive)
GI50 [50]: > 100 µM (inactive)
GI50 [51]: 28.6 µM (inactive)
GI50 [58]: 42.1 µM (inactive)
GI50 [52]: > 100 µM (inactive)
GI50 [53]: > 100 µM (inactive)
GI50 [54]: > 100 µM (inactive)
GI50 [55]: > 100 µM (inactive)
